Tests used:
[1] = test system: brain (striatum) of the rat; experiment: Concentration of dopamine, its metabolites, 5-HT and 5-HIAA in the striatum of benserazide-pretreated rats; assay type: in vivo; conditions: for 3-MT concentration in striatum (MV) / 5-HIAA concentration in striatum (MV) / 5-HT concentration in striatum (MV) / Dopac concentration in striatum (MV) / Dopamine concentration in striatum (MV) / HVA concentration in striatum (MV): 30 min after benserazide, tissue 90 min later
Experimental: (§1) The rats were pretreated with benserazide, an inhibitor of the aromatic amino acid decarboxylase, in order to reduce the degradation of the test compounds in the blood and to thus provide sufficient concentration of dopamine and α-lipoic acid in the brain. After 30 minutes, L-DOPA (standard therapy for Parkinson's disease) or compound 1, compound 2, compound 3 in doses equivalent to L-DOPA were injected into the peritoneum (intraperitoneal, ip). After a further 90 minutes, blood and brain tissue (striatum) were extracted. A lower dose (25 mg/kg body weight) and a higher dose (50 mg/kg body weight) of L-DOPA were selected.

[2] = test system: blood plasma of rats; experiment: Concentration of dopamine, its metabolites, 5-HT and 5-HIAA in the blood plasma of benserazide-pretreated rats; assay type: in vivo, rat; conditions: for 3-MT concentration in blood plasma (MV) / 5-HIAA concentration in blood plasma (MV) / 5-HT concentration in blood plasma (MV) / Dopac concentration in blood plasma (MV) / Dopamine concentration in blood plasma (MV) / HVA concentration in blood plasma (MV): 30 min after benserazide, blood 90 min later; for Formation of dopamine in the blood plasma (in words): low and higher doses
Experimental: as §1

[3] = test system: nucleus accumbens of a freely moving rat; experiment: In vivo microdialysis of dopamine release in the nucleus accumbens of the freely moving rat; conditions: for Dose dependence of dopamine release in nucleus accumbens (in words): 25 and 50 mg/kg L-DOPA or equimolar doses, FIGS. 1-4; for Time-course of dopamine concentration in nucleus accumbens microdialysate (in words): ip, 30 min after benserazide, L-DOPA: higher dose (FIG. 1), compound 1: FIGS. 3 and 4
Experimental: The arrow indicates the moment of injection (ip: intraperitoneal) of L-DOPA (25 mg/kg body weight) 30 minutes after the administration of benserazide (10 mg/kg body weight, ip).
The arrow indicates the moment of injection (ip: intraperitoneal) of L-DOPA (50 mg/kg body weight) 30 minutes after the administration of benserazide (10 mg/kg body weight, ip, in 0.9% NaCl).
The arrow indicates the moment of injection (ip: intraperitoneal) of diacetyl-DOPA-ethylene glycol α-lipoic acid (equimolar dose to 25 mg/kg body weight L-DOPA) 30 minutes after the administration of benserazide (10 mg/kg body weight, ip in 0.9% NaCl).
The arrow indicates the moment of injection (ip: intraperitoneal) of diacetyl-DOPA-ethylene glycol α-lipoic acid (equimolar dose to 50 mg/kg body weight L-DOPA) 30 minutes after the administration of benserazide (10 mg/kg body weight, ip).
Furthermore, by the method of in vivo micro dialysis of the conscious and freely moving rat, experiments were carried out to test whether the production and release of dopamine in the nucleus accumbens, a part of the brain with dense innervation of dopamine-containing nerve cells, is increased upon administration of L-DOPA or compound 1. The advantage of said method consists in the fact that the time-course of the release of the messenger dopamine from the active nerve cells can be observed in the conscious and freely moving rat. […] Said strong increase and the high concentrations are not desired since several degradation products of dopamine and the oxygen radicals formed during the degradation of dopamine have damaging effects on nerve cells.

[4] = 25 mg/kg L-DOPA or L-DOPA eq. ip
[5] = 50 mg/kg L-DOPA or L-DOPA eq. ip
[6] = higher doses (50 mg/kg L-DOPA eq.)
[7] = low doses (25 mg/kg L-DOPA eq.)

Row | SMILES | 3-MT concentration in striatum (MV) [1, 4] [pg per mg striatum] | 5-HIAA concentration in striatum (MV) [1, 4] [pg per mg striatum] | 5-HT concentration in striatum (MV) [1, 4] [pg per mg striatum] | Dopac concentration in striatum (MV) [1, 4] [pg per mg striatum] | Dopamine concentration in striatum (MV) [1, 4] [pg per mg striatum] | HVA concentration in striatum (MV) [1, 4] [pg per mg striatum] | 3-MT concentration in striatum (MV) [1, 5] [pg per mg striatum] | 5-HIAA concentration in striatum (MV) [1, 5] [pg per mg striatum] | 5-HT concentration in striatum (MV) [1, 5] [pg per mg striatum] | Dopac concentration in striatum (MV) [1, 5] [pg per mg striatum] | Dopamine concentration in striatum (MV) [1, 5] [pg per mg striatum] | HVA concentration in striatum (MV) [1, 5] [pg per mg striatum] | Effect on the concentrations of dopamine in striatum (in words) [1, 6] | Effect on the metabolites DOPAC and HVA in striatum (in words) [1, 6] | Effect on the concentrations of dopamine in striatum (in words) [1, 7] | Effect on the metabolites DOPAC and HVA in striatum (in words) [1, 7] | 3-MT concentration in blood plasma (MV) [2, 4] [pg per ml plasma] | 5-HIAA concentration in blood plasma (MV) [2, 4] [pg per ml plasma] | 5-HT concentration in blood plasma (MV) [2, 4] [pg per ml plasma] | Dopac concentration in blood plasma (MV) [2, 4] [pg per ml plasma] | also measured
1 | NC(Cc1ccc(O)c(O)c1)C(=O)O [L-DOPA, 2-amino-3-(3,4-dihydroxyphenyl)-propionic acid, reference compound] | 312 | 711 | 365 | 3017 | 10108 | 1752 | 259 | 593 | 366 | 9159 | 11844 | 4550 | led to an increase | increased | do not lead to an increase | increased | 11897 | 18687 | 3089 | 20833 | Dopamine concentration in blood plasma (MV) [2, 4]: 20437 pg per ml plasma; HVA concentration in blood plasma (MV) [2, 4]: 9592 pg per ml plasma; 3-MT concentration in blood plasma (MV) [2, 5]: 14711 pg per ml plasma; 5-HIAA concentration in blood plasma (MV) [2, 5]: 11426 pg per ml plasma; 5-HT concentration in blood plasma (MV) [2, 5]: 15108 pg per ml plasma; Dopac concentration in blood plasma (MV) [2, 5]: 38697 pg per ml plasma; Dopamine concentration in blood plasma (MV) [2, 5]: 31519 pg per ml plasma; HVA concentration in blood plasma (MV) [2, 5]: 69329 pg per ml plasma; Formation of dopamine in the blood plasma (in words) [2]: dopamine is formed; Dose dependence of dopamine release in nucleus accumbens (in words) [3]: released in a dose-dependent manner; Time-course of dopamine concentration in nucleus accumbens microdialysate (in words) [3]: strongly increases
2 | CC(=O)Oc1ccc(C[C@H](N)C(=O)OCCOC(=O)CCCCC2CCSS2)cc1OC(C)=O (stereo partly drawn) [compound 1, O,O′-diacetyl-L-DOPA-ethylene glycol lipoic acid ester] | 308 | 706 | 355 | 4532 | 11244 | 2567 | 194 | 764 | 411 | 9549 | 11695 | 4314 | – | increased | do not lead to an increase | increased | 8563 | 13852 | 8894 | 57257 | Dopamine concentration in blood plasma (MV) [2, 4]: 29782 pg per ml plasma; HVA concentration in blood plasma (MV) [2, 4]: 16836 pg per ml plasma; 3-MT concentration in blood plasma (MV) [2, 5]: 6288 pg per ml plasma; 5-HIAA concentration in blood plasma (MV) [2, 5]: 15367 pg per ml plasma; 5-HT concentration in blood plasma (MV) [2, 5]: 12094 pg per ml plasma; Dopac concentration in blood plasma (MV) [2, 5]: 58266 pg per ml plasma; Dopamine concentration in blood plasma (MV) [2, 5]: 22129 pg per ml plasma; HVA concentration in blood plasma (MV) [2, 5]: 71658 pg per ml plasma; Formation of dopamine in the blood plasma (in words) [2]: Dopamine is also formed; Dose dependence of dopamine release in nucleus accumbens (in words) [3]: released in a dose-dependent manner; Time-course of dopamine concentration in nucleus accumbens microdialysate (in words) [3]: two-peak-maximum and a less steep increase as well as a longer lasting effect
3 | CC(=O)Oc1ccc(CC(NC(=O)CCCCC2CCSS2)C(=O)O)cc1OC(C)=O [compound 2, O,O′-diacetyl-L-DOPA-(R,S)-lipoic acid amide] | 267 | 780 | 438 | 6127 | 10512 | 1577 | 176 | 782 | 448 | 5697 | 11485 | 1742 | led to an increase | increased | do not lead to an increase | increased | 11480 | 8374 | 7966 | 52963 | Effect on the concentration of 5-HT in striatum (in words) ([1]; rat, in vivo): increased the concentration of 5-HT; Dopamine concentration in blood plasma (MV) [2, 4]: 23006 pg per ml plasma; HVA concentration in blood plasma (MV) [2, 4]: 44304 pg per ml plasma; 3-MT concentration in blood plasma (MV) [2, 5]: 6121 pg per ml plasma; 5-HIAA concentration in blood plasma (MV) [2, 5]: 12656 pg per ml plasma; 5-HT concentration in blood plasma (MV) [2, 5]: 7494 pg per ml plasma; Dopac concentration in blood plasma (MV) [2, 5]: 57729 pg per ml plasma; Dopamine concentration in blood plasma (MV) [2, 5]: 21919 pg per ml plasma; HVA concentration in blood plasma (MV) [2, 5]: 42184 pg per ml plasma; Formation of dopamine in the blood plasma (in words) [2]: Dopamine is also formed
4 | O=C(CCCCC1CCSS1)NC(Cc1ccc(O)c(O)c1)C(=O)O [compound 3, L-DOPA-(D,L)-lipoic acid amide] | 292 | 620 | 340 | 1508 | 10539 | 1042 | 237 | 490 | 278 | 1788 | 11488 | 1244 | led to an increase | increased | do not lead to an increase | only HVA | – | – | – | – | –

From patent US20090285888A1, “DERIVATIVES OF DIHYDROXYPHENYLALANINE” (priority 2006, published 2009)
